Test results: patent US8367658B2, “Pyrazin-2-yl-pyridin-2-yl-amine and pyrazin-2-yl-pyrimidin-4-yl-amine compounds and their use” (Cancer Research Technology Limited, priority 2007, dated 2013)

Molecular target: T1, CHK1 (Homo sapiens, UniProt O14757)
T1 sequence (O14757 1-476): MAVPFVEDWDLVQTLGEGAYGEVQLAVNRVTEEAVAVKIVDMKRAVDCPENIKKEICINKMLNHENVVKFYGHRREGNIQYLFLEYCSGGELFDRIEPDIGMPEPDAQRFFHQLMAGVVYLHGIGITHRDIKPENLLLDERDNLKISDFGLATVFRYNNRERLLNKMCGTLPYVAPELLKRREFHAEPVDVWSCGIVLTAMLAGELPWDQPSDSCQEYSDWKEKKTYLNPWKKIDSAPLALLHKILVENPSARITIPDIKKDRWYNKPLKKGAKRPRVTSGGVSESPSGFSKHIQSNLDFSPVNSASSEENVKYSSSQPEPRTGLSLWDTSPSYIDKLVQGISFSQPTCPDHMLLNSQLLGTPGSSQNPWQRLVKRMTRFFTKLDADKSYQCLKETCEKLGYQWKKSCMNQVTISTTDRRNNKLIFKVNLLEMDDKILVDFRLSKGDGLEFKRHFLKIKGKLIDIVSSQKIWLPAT
Experiment: CHK1 kinase function inhibition assay (DELFIA, phosphorylation of a CDC25C peptide)
Assay type: biochemical
Settings: CHK1 1 nM, ATP 30 μM, 30 minutes at room temperature
Procedure: Measurement of Inhibition of CHK1 Kinase Function
CHK1 kinase function was measured in a DELFIA® assay in order to monitor phosphorylation of a CDC25C peptide using a specific phospho antibody.
The reaction mixture was incubated for 30 minutes at room temperature and then stopped by the addition of buffer (125 μL) containing 40 mM EDTA, 0.05% Tween 20, 0.1% BSA in TBS (10× concentrate, Sigma). An aliquot (100 μL) of the stopped reaction mixture was transferred to a black neutravidin-coated plate (Perbio) and incubated for 1 hour on a shaker (Titertek, Flow Laboratories) at room temperature. […] The plates were washed a further four times with wash buffer before the addition of enhancement solution (100 μL/well, PerkinElmer Life Sciences).

Question: `CCNC(=O)c1cnc(Nc2cnc(C#N)cn2)cc1NC1CCN(C)CC1` [Compound Y-085, 6-(5-Cyanopyrazin-2-ylamino)-N-ethyl-4-(1-methylpiperidin-4-ylamino)nicotinamide] was tested. Which IC50 did it give?
Answer: Its IC50 is no more than 100 nM.

Question: `CC(C)NC(=O)c1cnc(Nc2cnc(C#N)cn2)cc1NCC1CCNCC1` [Compound Y-086, 6-(5-Cyanopyrazin-2-ylamino)-N-isopropyl-4-(piperidin-4-ylmethylamino)nicotinamide] was tested. Which IC50 did it give?
Answer: The IC50 was no more than 100 nM.

Question: For `N#Cc1cnc(Nc2cc(NCC3CCNCC3)c(C(=O)N3CCCC3)cn2)cn1` [Compound Y-087, 5-(4-(Piperidin-4-ylmethylamino)-5-(pyrrolidine-1-carbonyl)pyridin-2-ylamino)pyrazine-2-carbonitrile], which IC50 is on record?
Answer: The IC50 was no more than 100 nM.

Question: Which IC50 does the source give for `N#Cc1cnc(Nc2cc(NCC3CCNCC3)c(C(=O)NCCO)cn2)cn1` [Compound Y-088, 6-(5-Cyanopyrazin-2-ylamino)-N-(2-hydroxyethyl)-4-(piperidin-4-ylmethylamino)nicotinamide] here?
Answer: Its IC50 is 100 to 1000 nM.

Question: How did the IC50 turn out when `N#Cc1cnc(Nc2cc(NCC3CCNCC3)c(C(=O)N3CCOCC3)cn2)cn1` [Compound Y-089, 5-(5-(Morpholine-4-carbonyl)-4-(piperidin-4-ylmethylamino)pyridin-2-ylamino)pyrazine-2-carbonitrile] was run?
Answer: Its IC50 is 1000 to 10000 nM.

Question: For `COCCN(C)C(=O)c1cnc(Nc2cnc(C#N)cn2)cc1NCC1CCNCC1` [Compound Y-091, 6-(5-Cyanopyrazin-2-ylamino)-N-(2-methoxyethyl)-N-methyl-4-(piperidin-4-ylmethylamino)nicotinamide], which IC50 is on record?
Answer: The IC50 was 100 to 1000 nM.

Question: Which IC50 does the source give for `N#Cc1cnc(Nc2cc(NCC3CCNCC3)c(C(=O)Nc3ccc(F)cc3)cn2)cn1` [Compound Y-092, 6-(5-Cyanopyrazin-2-ylamino)-N-(4-fluorophenyl)-4-(piperidin-4-ylmethylamino)nicotinamide] here?
Answer: Its IC50 is 100 to 1000 nM.

Question: Which IC50 does the source give for `N#Cc1cnc(Nc2cc(NCC3CCNCC3)c(C(=O)Nc3ccccc3F)cn2)cn1` [Compound Y-093, 6-(5-Cyanopyrazin-2-ylamino)-N-(2-fluorophenyl)-4-(piperidin-4-ylmethylamino)nicotinamide] here?
Answer: Its IC50 is 100 to 1000 nM.

Question: With `N#Cc1cnc(Nc2cc(NCC3CCNCC3)c(C(=O)Nc3cccc(F)c3)cn2)cn1` [Compound Y-094, 6-(5-Cyanopyrazin-2-ylamino)-N-(3-fluorophenyl)-4-(piperidin-4-ylmethylamino)nicotinamide] as the compound, how does the IC50 read?
Answer: Its IC50 is 100 to 1000 nM.

Question: With `COc1ccc(NC(=O)c2cnc(Nc3cnc(C#N)cn3)cc2NCC2CCNCC2)cc1` [Compound Y-095, 6-(5-Cyanopyrazin-2-ylamino)-N-(4-methoxyphenyl)-4-(piperidin-4-ylmethylamino)nicotinamide] as the compound, how does the IC50 read?
Answer: The IC50 was no more than 100 nM.

Question: `COc1cccc(NC(=O)c2cnc(Nc3cnc(C#N)cn3)cc2NCC2CCNCC2)c1` [Compound Y-096, 6-(5-Cyanopyrazin-2-ylamino)-N-(3-methoxyphenyl)-4-(piperidin-4-ylmethylamino)nicotinamide] was tested. Which IC50 did it give?
Answer: Its IC50 is no more than 100 nM.

Question: Which IC50 does the source give for `COc1ccccc1NC(=O)c1cnc(Nc2cnc(C#N)cn2)cc1NCC1CCNCC1` [Compound Y-097, 6-(5-Cyanopyrazin-2-ylamino)-N-(2-methoxyphenyl)-4-(piperidin-4-ylmethylamino)nicotinamide] here?
Answer: The IC50 was 100 to 1000 nM.

Question: How did the IC50 turn out when `N#Cc1cnc(Nc2cc(NCC3CCNCC3)c(C(=O)Nc3ccc(OCCN4CCOCC4)cc3)cn2)cn1` [Compound Y-098, 6-(5-Cyanopyrazin-2-ylamino)-N-(4-(2-morpholinoethoxy)phenyl)-4-(piperidin-4-ylmethylamino)nicotinamide] was run?
Answer: Its IC50 is no more than 100 nM.

Question: For `N#Cc1cnc(Nc2cc(NCC3CCNCC3)c(C(=O)Nc3cccc(N4CCOCC4)c3)cn2)cn1` [Compound Y-099, 6-(5-Cyanopyrazin-2-ylamino)-N-(3-morpholinophenyl)-4-(piperidin-4-ylmethylamino)nicotinamide], which IC50 is on record?
Answer: The IC50 was no more than 100 nM.

Question: Which IC50 does the source give for `N#Cc1cnc(Nc2cc(NCC3CCNCC3)c(C(=O)Nc3ccc(N4CCOCC4)cc3)cn2)cn1` [Compound Y-100, 6-(5-Cyanopyrazin-2-ylamino)-N-(4-morpholinophenyl)-4-(piperidin-4-ylmethylamino)nicotinamide] here?
Answer: Its IC50 is no more than 100 nM.

Question: How did the IC50 turn out when `N#Cc1cnc(Nc2cc(NCC3CCNCC3)c(C(N)=O)cn2)cn1` [Compound Y-101, 6-(5-Cyanopyrazin-2-ylamino)-4-(piperidin-4-ylmethylamino)nicotinamide] was run?
Answer: The IC50 was 100 to 1000 nM.

Question: How did the IC50 turn out when `N#Cc1cnc(Nc2cc(NCC3CNCCO3)c(C(=O)Nc3ccccc3)cn2)cn1` (stereo not shown) [Compound Y-102, 6-(5-Cyanopyrazin-2-ylamino)-4-(morpholin-2-ylmethylamino)-N-phenylnicotinamide] was run?
Answer: The IC50 was no more than 100 nM.

Question: With `CN1CCC(Nc2cc(Nc3cnc(C#N)cn3)ncc2C(=O)Nc2ccccc2)CC1` [Compound Y-103, 6-(5-Cyanopyrazin-2-ylamino)-4-(1-methylpiperidin-4-ylamino)-N-phenylnicotinamide] as the compound, how does the IC50 read?
Answer: The IC50 was no more than 100 nM.

Question: How did the IC50 turn out when `CN1CCC(Nc2cc(Nc3cnc(C#N)cn3)ncc2C(=O)O)CC1` [Compound Y-104, 6-(5-Cyanopyrazin-2-ylamino)-4-(1-methylpiperidin-4-ylamino)nicotinic acid] was run?
Answer: The IC50 was 1000 to 10000 nM.

Question: `COC(=O)c1cnc(Nc2cnc(C)cn2)cc1NC1CCN(C)CC1` [Compound Y-105, methyl 4-(1-methylpiperidin-4-ylamino)-6-(5-methylpyrazin-2-ylamino)nicotinate] was tested. Which IC50 did it give?
Answer: Its IC50 is no more than 100 nM.

Question: `COC(=O)c1cnc(Nc2cnc(OC)cn2)cc1NCC1CNCCO1` (stereo not shown) [Compound Y-106, Methyl 6-(5-methoxypyrazin-2-ylamino)-4-(morpholin-2-ylmethylamino)nicotinate] was tested. Which IC50 did it give?
Answer: Its IC50 is 100 to 1000 nM.

Question: Which IC50 does the source give for `CN1CCC(Nc2cc(Nc3cnc(C#N)cn3)ncc2Cl)CC1` [Compound Y-108, 5-(5-Chloro-4-(1-methylpiperidin-4-ylamino)pyridin-2-ylamino)pyrazine-2-carbonitrile] here?
Answer: The IC50 was no more than 100 nM.

Question: `CN1CCC(N(C)c2cc(Nc3cnc(C#N)cn3)ncc2Cl)CC1` [Compound Y-109, 5-(5-Chloro-4-(methyl(1-methylpiperidin-4-yl)amino)pyridin-2-ylamino)pyrazine-2-carbonitrile] was tested. Which IC50 did it give?
Answer: Its IC50 is 100 to 1000 nM.

Question: Which IC50 does the source give for `CN1CCC(Nc2cc(Nc3cnc(C#N)cn3)ncc2Br)CC1` [Compound Y-110, 5-(5-Bromo-4-(1-methylpiperidin-4-ylamino)pyridin-2-ylamino)pyrazine-2-carbonitrile] here?
Answer: The IC50 was no more than 100 nM.

Question: How did the IC50 turn out when `CN1CCC(Nc2cc(Nc3cnc(C#N)cn3)ncc2-c2ccccc2)CC1` [Compound Y-111, 5-(4-(1-Methylpiperidin-4-ylamino)-5-phenylpyridin-2-ylamino)pyrazine-2-carbonitrile] was run?
Answer: The IC50 was no more than 100 nM.

Question: With `CN1CCC(Nc2cc(Nc3cnc(C#N)cn3)ncc2-c2ccsc2)CC1` [Compound Y-112, 5-(4-(1-methylpiperidin-4-ylamino)-5-(thiophen-3-yl)pyridin-2-ylamino)pyrazine-2-carbonitrile] as the compound, how does the IC50 read?
Answer: Its IC50 is no more than 100 nM.

Question: Which IC50 does the source give for `CN1CCC(N(C)c2cc(Nc3cnc(C#N)cn3)ncc2-c2ccccc2)CC1` [Compound Y-113, 5-(4-(methyl(1-methylpiperidin-4-yl)amino)-5-phenylpyridin-2-ylamino)pyrazine-2-carbonitrile] here?
Answer: Its IC50 is 100 to 1000 nM.

Question: How did the IC50 turn out when `COc1ccc(-c2cnc(Nc3cnc(C#N)cn3)cc2NC2CCN(C)CC2)cc1` [Compound Y-114, 5-(5-(4-methoxyphenyl)-4-(1-methylpiperidin-4-ylamino)pyridin-2-ylamino)pyrazine-2-carbonitrile] was run?
Answer: The IC50 was no more than 100 nM.

Question: Which IC50 does the source give for `COCc1cccc(-c2cnc(Nc3cnc(C#N)cn3)cc2NC2CCN(C)CC2)c1` [Compound Y-115, 5-(5-(3-(methoxymethyl)phenyl)-4-(1-methylpiperidin-4-ylamino)pyridin-2-ylamino)pyrazine-2-carbonitrile] here?
Answer: Its IC50 is no more than 100 nM.

Question: How did the IC50 turn out when `COc1cccc(-c2cnc(Nc3cnc(C#N)cn3)cc2NC2CCN(C)CC2)c1` [Compound Y-116, 5-(5-(3-Methoxyphenyl)-4-(1-methylpiperidin-4-ylamino)pyridin-2-ylamino)pyrazine-2-carbonitrile] was run?
Answer: The IC50 was no more than 100 nM.

Question: Which IC50 does the source give for `COCCOc1ccc(-c2cnc(Nc3cnc(C#N)cn3)cc2NC2CCN(C)CC2)cc1` [Compound Y-117, 5-(5-(4-(2-Methoxyethoxy)phenyl)-4-(1-methylpiperidin-4-ylamino)pyridin-2-ylamino)pyrazine-2-carbonitrile] here?
Answer: Its IC50 is no more than 100 nM.

Question: For `COCCOc1cccc(-c2cnc(Nc3cnc(C#N)cn3)cc2NC2CCN(C)CC2)c1` [Compound Y-118, 5-(5-(3-(2-methoxyethoxy)phenyl)-4-(1-methylpiperidin-4-ylamino)pyridin-2-ylamino)pyrazine-2-carbonitrile], which IC50 is on record?
Answer: The IC50 was no more than 100 nM.

Question: `COCc1ccc(-c2cnc(Nc3cnc(C#N)cn3)cc2NC2CCN(C)CC2)cc1` [Compound Y-119, 5-(5-(4-(Methoxymethyl)phenyl)-4-(1-methylpiperidin-4-ylamino)pyridin-2-ylamino)pyrazine-2-carbonitrile] was tested. Which IC50 did it give?
Answer: The IC50 was no more than 100 nM.

Question: How did the IC50 turn out when `CN1CCC(Nc2cc(Nc3cnc(C#N)cn3)ncc2-c2ccc(N3CCOCC3)cc2)CC1` [Compound Y-120, 5-(4-(1-Methylpiperidin-4-ylamino)-5-(4-morpholinophenyl)pyridin-2-ylamino)pyrazine-2-carbonitrile] was run?
Answer: Its IC50 is no more than 100 nM.
